For six compounds, IC50 results are on record in patent publication US20250332173A1, “COMPOUNDS AND METHODS FOR MODULATING NUCLEIC ACID SPLICING” (REMIX THERAPEUTICS INC., priority 2021, published 2025).

What all share (assay type): cell-based, human
In one test the test system is SMN2 mRNA. As to the kind of experiment: RT-qPCR splicing assay, SMN2 canonical junction (CJ) mRNA. The note with it: Homo sapiens; Table 5 panel; canonical junction qPCR; compound concentration having 50% response in CJ decrease; read-out: SMN2 IC50 (decrease in CJ mRNA levels). The gist of the method: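 Cells are plated (A673 allowed 24 h to adhere), dosed with an 11-point 3-fold series topping at 10 uM final, and incubated 24 h at 37 °C. Lysis is followed by cDNA synthesis and qPCR of the CJ transcript, normalized to a housekeeping gene.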
Background: In qPCR the cycle at which signal appears reflects the starting amount.

A further test deals with MYB. Nature of the test: HiBiT protein abundance assay, MYB HiBiT K562 cell line. Conditions: HiBiT K562 cell line, 24 hours, top dose 10 μM; read-out: Effect on protein abundance, MYB (IC50 category). The gist of the method: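 Endogenous targets in K562 knock-in lines carried a HiBiT tag and were treated for 24 h at 37 °C with 10-point 3-fold dilutions (top 10 μM final, DMSO ≤0.25%). Abundance was read as lytic Nano-Glo HiBiT luminescence. IC50 came from a four-parameter logistic fit of normalized response.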

In another test the test system is Target C. Nature of the test: HiBiT protein abundance assay, Target C (Promega Nano-Glo HiBiT Lytic Detection System, knock-in K562 cell line). The note with it: Homo sapiens, K562, 24 h, HiBiT K562 cell line, 24 hours, top dose 10 μM; read-out: Effect on protein abundance, Target C (IC50 category). The gist of the method: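 HiBiT knock-in K562 cells (10,000/well) were treated for 24 h at 37 °C with a 10-point 3-fold dilution series, top final concentration 10 μM, DMSO ≤0.25%. Lytic HiBiT luminescence was read, normalized to unmodified K562 and DMSO-treated controls, and IC50 was interpolated from a four-parameter logistic fit.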

Bounds are passed on as bounds.

Broadly, the IC50 is the concentration needed to halve the response being measured. Take `CNc1cc(-c2cc(F)c3nc(C)cn3c2)cc2ncn(C3CCNCC3)c(=O)c12` [Compound 358, 7-{8-fluoro-2-methylimidazo[1,2-a]pyridine-6-yl}-5-(methylamino)-3-(piperidin-4-yl)quinazolin-4-one]: the IC50 fell in the range of 100 to 1000 nM with SMN2 mRNA, 1000 to 10000 nM in the test on MYB and 1000 to 10000 nM in the test on Target C.

On to `CNc1cc(-c2cc(C)c3nc(C)cn3n2)cc2ncn(C3CCNCC3)c(=O)c12` [Compound 359, 7-{2,8-dimethylimidazo[1,2-b]pyridazin-6-yl}-5-(methylamino)-3-(piperidin-4-yl)quinazolin-4-one], for which the IC50 was less than 100 nM in the test on SMN2 mRNA, 100 to 1000 nM with MYB and 1000 to 10000 nM in the test on Target C.

Take `CNc1cc(-c2cn3cc(C)nc3c(C)n2)cc2ncn(C3CCNCC3)c(=O)c12` [Compound 360, 7-{2,8-dimethylimidazo[1,2-a]pyrazine-6-yl}-5-(methylamino)-3-(piperidin-4-yl)quinazolin-4-one]: the IC50 was 1000 to 10000 nM in the test with SMN2 mRNA, greater than 10000 nM with MYB and greater than 10000 nM in the test on Target C.

Take `Cc1cc(-c2cc(F)c3c(=O)n(C4CCNC5(CC5)C4)cnc3c2)nc2cn(C)nc12` (stereo not drawn) [Compound 361, 3-{4-azaspiro[2.5]octan-7-yl}-7-{2,7-dimethylpyrazolo[4,3-b]pyridin-5-yl}-5-fluoroquinazolin-4-one]: the half-maximal inhibitory concentration (IC50) in the test on SMN2 mRNA, with MYB and with Target C was less than 100 nM each time.

Turning to `Cc1cn2nc(-c3cc(O)c4c(=O)n(C5CCNC5)cnc4c3)cc(C)c2n1` (stereo not drawn) [Compound 362, 7-{2,8-dimethylimidazo[1,2-b]pyridazin-6-yl}-5-hydroxy-3-(pyrrolidin-3-yl)quinazolin-4-one], the figures for the IC50 in the test with SMN2 mRNA, in the test on MYB and with Target C were 100 to 1000 nM, 1000 to 10000 nM and greater than 10000 nM, respectively.

Regarding `CNc1cc(-c2cc(C#N)c3nc(C)cn3c2)cc2ncn(C3CCNCC3)c(=O)c12` [Compound 363, 2-methyl-6-[5-(methylamino)-4-oxo-3-(piperidin-4-yl)quinazolin-7-yl]imidazo[1,2-a]pyridine-8-carbonitrile], the IC50 in the test with SMN2 mRNA, in the test with MYB and in the test with Target C was 1000 to 10000 nM throughout.
